The values that follow come from patent US7279502B2, “Polyamine analog conjugates and quinone conjugates as therapies for cancers and prostate diseases” (Cellgate, Inc., priority 1999, dated 2007).

Data set [1] concerns human colon cancer cells HT29. As to the kind of experiment: MTT assay, polyamine analogs, HT29. Type of data set: cell-based. As to conditions: for EC50: HT-29, survival of cultured HT29 cells, figure legends, read-out: ED50 (the source's name). Here is the method: (§1) As shown in Table 2 and FIGS. 1-32, several novel conformationally restricted polyamine analogs were tested for anti-proliferative properties against cancer cells.
(§2) Human breast cancer cell line MCF7 was grown in Richter's Improved Modified Eagle's Medium supplemented with 10% fetal bovine serum (FBS) and 2.2 g/L sodium bicarbonate. Human brain tumor cell line U251 MG-NCI was grown in Dulbecco's Modified Eagle's Medium supplemented with 10% FBS. Human lung cancer cell line A549 was grown in Ham's F-12K medium (Cellgro, Mediatech, Inc., VA), supplemented with 10% FBS and 2 mM L-glutamine. Human colon cancer cell line HT29 was cultured in McCoy's 5A medium (Gibco, BRL, Gaithersburg, Md.) supplemented with 10% FBS. Human prostate cancer cell lines PC-3, LNCAP and DuPro were grown in RPMI 1640 Medium (Cellgro, Mediatech, Inc., VA) supplemented with 10% FBS. Another human prostate cancer cell line DU145 was grown in Dulbecco's Modified Eagle's Medium (Gibco, BRL, Gaithersburg, Md.) supplemented with 5% FBS. The A549, MCF7, PC3, LNCAP and DuPro cell lines were cultured in 100 units/mL penicillin and 100 μg/mL streptomycin. HT29 and U251MG cell lines were grown in 50 μg/mL gentamycin (Gibco, BRL, Gaithersburg, Md.). DU145 cell line was maintained in 1% antibitic-antimycotic solution (Sigma, St. Louis, Mo.). The cell cultures were maintained at 37° C. in 5% CO2/95% humidified air. DuPro cells were obtained from M. Eileen Dolan, University of Chicago. All other cells are available from the American Type Culture Collection, Rockville, Md.
(§3) A conventional MTT assay was used to evaluate percent cell survival. Exponentially growing monolayer cells were plated in 96-well plates at a density of 500 cells per well and allowed to grow for 24 hours. Serial dilutions of the drugs were added to the wells. Six days after drug treatment, 25 μl of MTT solution (5 mg/ml) was added to each well and incubated for 4 hours at 37° C. Then 100 μl of lysis buffer (20% sodium dodecyl sulfate, 50% DMF, and 0.8% acetic acid, pH 4.7) was added to each well and incubated for an additional 22 hours. A microplate reader (“EMAX”-brand, Molecular Devices, Sunnyvale, Calif.) set at 570 nm was used to determine the optical density of the cultures. Results are expressed as a ratio of the optical density in drug-treated wells to the optical density in wells treated with vehicle only.

For data set [2], the system named is human lung cancer cells A549. Kind of data set: MTT assay, polyamine analogs, A549. Type of data set: cell-based. As to conditions: Homo sapiens; for EC50: A549, survival of cultured A549 cells, figure legends, read-out: ED50 (the source's name). Here is the method:
as §1, §2, §3

Data set [3] concerns human brain tumor cells U251 MG NCI. Kind of data set: MTT assay, polyamine analogs, U251 MG NCI. Type of data set: cell-based. As to conditions: for EC50: U-251, survival of cultured U251 MG NCI cells, figure legends, read-out: ED50 (the source's name). Here is the method:
as §2, §3

Data set [4] deals with human prostate cancer cells DU145. As to the kind of experiment: MTT assay, polyamine analogs, DU145. Type of data set: cell-based. The note with it: Homo sapiens; for EC50: DU-145, survival of cultured DU145 cells, figure legends, read-out: ED50 (the source's name). Here is the method:
as §2, §3

The test system of data set [5] is human prostate cancer cells PC3. Kind of data set: MTT assay, polyamine analogs, PC3. Type of data set: cell-based. The note with it: PC-3, survival of cultured PC3 cells, figure legends, read-out: ED50 (the source's name). Here is the method:
as §2, §3

Data set [6] concerns human prostate cancer cells LNCAP. Kind of data set: MTT assay, polyamine analogs, LNCAP. It counts as cell-based. The note with it: Homo sapiens, LNCaP, survival of cultured LNCAP cells, figure legends; read-out: ED50 (the source's name). Here is the method:
as §2
A conventional MTT assay was used to evaluate percent cell survival. Exponentially growing monolayer cells were plated in 96-well plates at a density of 500 cells per well and allowed to grow for 24 hours. Serial dilutions of the drugs were added to the wells. Six days after drug treatment, 25 μl of MTT solution (5 mg/ml) was added to each well and incubated for 4 hours at 37° C. […] A microplate reader (“EMAX”-brand, Molecular Devices, Sunnyvale, Calif.) set at 570 nm was used to determine the optical density of the cultures. Results are expressed as a ratio of the optical density in drug-treated wells to the optical density in wells treated with vehicle only.

For data set [7], the system named is malignant glioma cell line, U251MG NCI. As to the kind of experiment: MTT assay, quinones, U251MG NCI. Type of data set: cell-based, human. The note with it: Table 6, non-quinone compounds; read-out: ID50 Brain U251-MG. Here is the method: Cell Culture: The human lung adenocarcinoma cell line, A549, and human prostatic cancer cell line, DUPRO, were a gift from Dr. M. Eileen Dolan, University of Chicago, Department of Medicine. A549 was grown in Ham's F-12K medium (Fisher Scientific, Itasca, Ill.) supplemented with 10% fetal bovine serum and 2 mM L-glutamine. DUPRO was grown in RPMI-1640 supplemented with 10% fetal bovine serum. The human colon carcinoma cell line, HT29, and the human breast carcinoma cell line, MCF7, were obtained from the American Type Culture Collection, Rockville, Md. HT29 cells were grown in McCoy's 5A medium (Gibco, BRL, Gaithersburg, Md.) supplemented with 10% fetal bovine serum. MCF7 cells were grown in Richter's Improved Modified Eagle's medium supplemented with 10% fetal bovine serum and 2.2 g/L sodium bicarbonate. The human prostate adenocarcinoma cell lines, LNCAP, PC-3 and DU145, were gifts from Dr. George Wilding, University of Wisconsin Comprehensive Cancer Center and the Department of Medicine, and were grown in Dulbecco's Modified Eagle's medium supplemented with a 5% fetal bovine serum. […]
MTT assay. […] A microplate reader (E max, Molecular Devices, Sunnyvale, Calif.) set at 570 nm was used to determine the optical density. […]

Data set [8] has as its system tumor cell lines. Kind of data set: In vitro anti-proliferative testing, summary statements. It counts as cell-based, human. As to conditions: FIGS. 57-59: PC3, DUPRO, LNCAP. Here is the method:
as §3

The subject of data set [9] is prostate xenograft tumors. The note with it: nude mice; cited from earlier work.
The test system of data set [10] is human prostate adenocarcinoma cell line PC-3. As to the kind of experiment: MTT assay, quinones, PC-3. It counts as cell-based. The note with it: Table 3, treatment time not given in cell, read-out: ID50 PC-3. Here is the method:
(§4) Cell Culture: The human lung adenocarcinoma cell line, A549, and human prostatic cancer cell line, DUPRO, were a gift from Dr. M. Eileen Dolan, University of Chicago, Department of Medicine. A549 was grown in Ham's F-12K medium (Fisher Scientific, Itasca, Ill.) supplemented with 10% fetal bovine serum and 2 mM L-glutamine. DUPRO was grown in RPMI-1640 supplemented with 10% fetal bovine serum. The human colon carcinoma cell line, HT29, and the human breast carcinoma cell line, MCF7, were obtained from the American Type Culture Collection, Rockville, Md. HT29 cells were grown in McCoy's 5A medium (Gibco, BRL, Gaithersburg, Md.) supplemented with 10% fetal bovine serum. MCF7 cells were grown in Richter's Improved Modified Eagle's medium supplemented with 10% fetal bovine serum and 2.2 g/L sodium bicarbonate. The human prostate adenocarcinoma cell lines, LNCAP, PC-3 and DU145, were gifts from Dr. George Wilding, University of Wisconsin Comprehensive Cancer Center and the Department of Medicine, and were grown in Dulbecco's Modified Eagle's medium supplemented with a 5% fetal bovine serum. The malignant glioma cell line, U251MG NCI was obtained from the brain tumor tissue bank at the University of California, San Francisco Department of Neurosurgery, and was grown in Dulbecco's Modified Eagle's medium supplemented wth 10% fetal bovine serum. DUPRO, A549 and MCF7 cells were grown in 100 units/mL penicillin and 100 μg/mL streptomycin. HT29 and U251MG NCI cells were grown in 50 μg/mL gentamycin. LNCAP, PC-3 and DU145 cells were maintained in 1% antibiotic antimycotic solution (Sigma, St. Louis, Mo.). All cell cultures were maintained at 37° C. in 5% CO2/95% humidified air.
(§5) MTT assay. Exponentially growing monolayer cells were plated in 96 well plates at a density of 500 cells/well and allowed to grow for 24 h. Serially diluted drug solutions were added such that the final drug concentrations in the treatment media were between 0 and 35 μM. Cells were incubated with drug at either 4 hr or 72 hr. After 4 hr and 72 hr treatment, drugs were removed, fresh media (without) drug (100 uL) was added and cells were incubated for 6 days. After six days, 25 μL of a Dulbecco's phosphate-buffered saline solution containing 5 mg/mL of MTT (Thiazolyl blue) (Sigma) was added to each well and incubated for 4 h at 37° C. Then 100 μL of lysis buffer (20% sodium dodecyl sulfate, 50% N,N-dimethylformamide and 0.8% acetic acid, pH 4.7) was added to each well and incubated for an additional 22 h. A microplate reader (E max, Molecular Devices, Sunnyvale, Calif.) set at 570 nm was used to determine the optical density. Results were plotted as a ratio of the optical density in drug treated wells to the optical density in wells treated with vehicle alone. Plotting and estimation of ID50 values were accomplished with manufacturer supplied software. The data is presented below in Tables 3, 4, 5 and 6.

For data set [11], the system named is human breast carcinoma cell line, MCF7. Kind of data set: MTT assay, quinones, MCF7. It counts as cell-based. As to conditions: Table 4, treatment time not given in cell, read-out: ID50 Breast MCF7. Here is the method:
as §4, §5

For data set [12] the following is noted: rats, Kanter et al. (1994); cited from earlier work.
For data set [13] the following is noted: Creaven et al. (1997); cited from earlier work.
Data set [14] concerns A549 human large cell hung carcinoma. The note with it: constant infusion via Alzet pump delivery for 5 days; cited from earlier work.
The test system of data set [15] is human prostate cancer cells DUPRO. As to the kind of experiment: MTT assay, polyamine analogs, DUPRO. The note with it: Homo sapiens, DuPro. It counts as cell-based. Here is the method:
as §2, §3

Data set [16] concerns human breast cancer cells MCF7. Kind of data set: MTT assay, polyamine analogs, MCF7. It counts as cell-based. Here is the method:
as §1, §2, §3

As to `CCNCCCCNCC1CC1CNCCCCNCC` (stereo not shown) [SL-11093], the EC50 in [1] was 400 nM; in data set [2], 260 nM; in [3] it was 70 nM; in data set [4] it was 16 nM; in data set [5] it was 1600 nM; in [6], 210 nM.
For `CC1(C)CCC2=C(O1)c1ccccc1C(=O)C2=O` [SL-11058], the IC50 in data set [7] was more than 31200 nM.
For the molecule `CCNCCCCNCCCCNCCCCNCCCCNCCO` [SL-11141], the “effectiveness against tumor cell lines in vitro” value in data set [8] is “display effectiveness against tumor cell lines in vitro”.
Regarding `CCNCCCNCCCCCCCNCCCNCC` [BE-373], the “inhibition of prostate xenograft tumors” value in [9] is “particularly effective in inhibiting prostate xenograft tumors in nude mice”.
`CCCCN(CC1=CC(=O)C(=O)c2ccccc21)C(C)=O` [SL-11087]: the IC50 in data set [10] was determined as 2400 nM; in data set [11], 4000 nM.
Turning to `CCNCCCNCCCNCCCNCC` [BE-333, N1,N11-diethylnorspermine], in [12], the toxicity on administration result is “labored breathing, convulsive movements and acute death”. The side effects entry in data set [13] is “headache, nausea and vomiting, unilateral weakness, dysphagia, dysarthria, numbness, paresthesias, and ataxia”. Moreover, the “anti-tumor activity, effect of schedule” value in data set [14] is “dramatically improves the anti-tumor activity”. Besides, in data set [9], the “inhibition of prostate xenograft tumors” value is recorded as “particularly effective in inhibiting prostate xenograft tumors in nude mice”.
On to `CCNC/C=C\CNC/C=C\CNC/C=C\CNCC` [SL-11108], for which the IC50 is 980 nM in data set [15] (144 h, read-out: concentration needed for 50% growth inhibition (ID50) DUPRO, Table 2, MTT six days after drug treatment); more than 31200 nM in data set [16] (MCF7, 144 h, read-out: concentration needed for 50% growth inhibition (ID50) MCF7, Table 2, MTT six days after drug treatment); 2000 nM in [1] (HT-29, 144 h, read-out: concentration needed for 50% growth inhibition (ID50) HT-29, Table 2, MTT six days after drug treatment); more than 31200 nM in [2] (A549, 144 h, read-out: concentration needed for 50% growth inhibition (ID50) A549, Table 2, MTT six days after drug treatment); 2000 nM in data set [3] (U-251, 144 h, read-out: concentration needed for 50% growth inhibition (ID50) U251MG, Table 2, MTT six days after drug treatment); 130 nM in data set [4] (DU-145, 144 h, read-out: concentration needed for 50% growth inhibition (ID50) DU-145, Table 2, MTT six days after drug treatment). Besides, the EC50 was 980 nM in [15] (survival of cultured DUPRO cells, figure legends, read-out: ED50 (the source's name)); more than 31200 nM in [16] (MCF7, survival of cultured MCF7 cells, figure legends, read-out: ED50 (the source's name)); 2000 nM in data set [1]; more than 31200 nM in [2]; 2000 nM in [3]; 130 nM in [4]. In addition, the results for the EC50 in data set [5] and in data set [6] were 2200 nM and 7700 nM, respectively.
Take `CCCCN(CC1=CC(=O)C(=O)c2ccccc21)C(=O)C(F)(F)F` [SL-11088]: the IC50 in [10] and in [11] was more than 31200 nM throughout.
